Patent US6416965B2, “Screening methods for presqualene disphosphate analogs” (Brigham and Women's Hospital, priority 1997, dated 2002)

Tests used:
Gst-Grb2 fusion protein = molecular target: T1, Gst-Grb2 fusion protein (Homo sapiens, UniProt P62993); experiment: PSDP equilibrium binding assay to GST-GRB2
T1 construct: purchased Upstate Biotechnology 14-128
Description: Equilibrium binding was determined for ^32PO4-PSDP (1 μM) to the adaptor protein, Grb2, which is known to carry two SH3 domains and one SH2 domain (Lowenstein, EJ, et al., Cell, 1992; 70:431). […] Bound material was separated from unbound by spin filtration (0.2 μm) and quantitated by scintillation counting.
To 100 μl of 0.9% NaCl was added 2 μg GST-GRB2 with 0-100 μg compound (e.g., delipidated human serum albumin, SH3-bearing SOS peptide or unlabeled PSDP) to be tested. The samples were prepared directly in the top of PGC spin filter tubes.
To the solution was added radiolabeled-PSDP in 1 μl ethanol. The mixture was vortexed and incubated at 37° C. for 30 minutes. After the incubation period, the sample was centrifuged at 2000 rpm at 25° C. for 3 minutes. […] The filter was removed, placed in a scintillation vial and the amount of radioactivity bound to the trapped agarose complex (i.e., bound material) was determined.
1 ml of CHCl3:MeOH (2:1) was added to the filtrate (a clear interface should be evident). […] At this stage, dependent upon the amount of radioactivity present, the radioactivity of the sample was determined either in scintillation fluid or by phosphoimage after TLC. […]
Bound material is reflected in the filtrate by loss of radioactivity when radiolabeled material is incubated in the presence of the GRB2 complex compared to the absence of the agarose complex. […]

Phospholipase D (PLD) = experiment: Phospholipase D inhibition, choline release, Lineweaver-Burk analysis; type: biochemical; conditions: PLD 3 units/125 μL, phosphatidyl choline substrate, 30° C., pH 7.5
Description: Phospholipase D (PLD) plays a central role in cellular activation in diverse cell types via the release of the bioactive […], phosphatidate. Several agonists operating through different classes of receptors have been defined that stimulate cellular PLD activity. No known endogenous regulators of PLD have been identified. Activation of neutrophils leads to an increase in intracellular phosphatidic acid that is generated predominantly via the hydrolysis of phosphatidyl choline by phospholipase D (Agwu, DE, et al., Journal of Clinical Investigation 1991; 88:531). Because PSDP inhibited phosphatidate mediated superoxide anion generation in human neutrophil sonicates (Levy, BD, et al., Nature 1997; 389:985), its impact on phospholipase D was determined. A purified enzyme was utilized to directly evaluate the action of PSDP with PLD. Lineweaver-Burk plots for PLD (3 units/125 μL; EC 3.1.4.4, Sigma Chemical Co.) in the presence of EtOH (0.2%) or increasing concentrations of PSDP are reported in FIG. 5. After addition of PSDP to PLD (5 min, 30° C.), phosphatidyl choline (lecithin) in 60 mM Tris/HCl+10 mM CaCl2, pH 7.5 was added (30° C.) and reactions were terminated at 30 second intervals (t0-90 sec) with Tris-HCl (1 M) plus EDTA (50 mM). Choline release was quantitated as in Abousalham A. et al. Biochimica et Biophysica Acta 1;1158 (1993). […]

neutrophil sonicates = conditions: Levy et al., Nature 1997; cited from earlier work
neutrophils = experiment: fMLP-stimulated intracellular calcium mobilization in FURA-2 loaded neutrophils; type: cell-based, human; conditions: PSDP 1 μM, 5 min 37° C.; 1 nM fMLP; EDTA 5 mM
Description: Inositol trisphosphate is known to be an important intracellular mediator of calcium mobilization from intracellular stores, a critical event in cellular activation (Exton, JH, Annual Review of Pharmacology and Toxicology 1996; 36:481). In order to determine the functional importance of the PSDP-mediated reduction in IP3 levels, fMLP-stimulated intracellular calcium mobilization in the presence of polyisoprenyl phosphates was measured. FURA-2 (1 μM) loaded neutrophils (10×10^6/2 ml) in the presence of EDTA (5 mM) were exposed (5 min, 37° C.) to PSDP (10−^5-10−^6 M) or EtOH (0.1%), followed by 1 nM fMLP. […] This inhibition was concentration dependent FIG. 7 and significant (n=3, mean±SEM, *P<0.05 by Student's t-test).

[1] = system: electroporated neutrophils; experiment: Superoxide anion generation (NADPH oxidase activity) by electroporated neutrophils; type: cell-based, human
Description: To test the impact of compounds VI and VIII on neutrophil responses, the isolated lipids were introduced into neutrophils by electroporation prior to determining NADPH oxidase activity. […] Prenyl cysteine analogues can disrupt G-protein interaction with activated FMLP receptors (Scheer, A. & Gierschik, P. Biochemistry. 34,4952-4961 (1995), the teachings of which are incorporated herein by reference); therefore to determine compound VI's level of action, neutrophil superoxide anion generation was examined in the presence of phorbol 12-myristate 13-acetate (PMA), a potent trigger for O2- production which bypasses cell surface receptors to stimulate protein kinase C and subsequent NADPH assembly (see for example, Baggiolini, M., Boulay, F., Badwey, J. A. & Curnutte, J. T. FASEB J. 7, […] (1993); FIG. 3c).
After electroporation, cells in cytochrome c (0.7 mg/ml) were exposed (10 min, 37° C.) to PMA (10^−7 M), FMLP (10^−7 M) plus cytochalasin b (15 μg/ml), compound VI (1 μM) or compound VIII (1 μM) and supernatants monitored at 550 nm. Values represent the mean±SEM for n≧4.
Neutrophils (10^7/500 μl) were electroporated (1.65 kV/cm, 250 μF, Ω∞, Invitrogen Electroporator VI) at 0° C. in the presence of 10−^9-10−^6 M compound VI, VIII, FDP, FMP, squalene or vehicle (ethanol 0.2%). After electroporation, cells, in cytochrome c (0.7 mg/ml), were exposed (10 minutes, 37° C.) to either cytochalasin b (5 μg/mL) and FMLP (10^−7 M)(a) or PMA ((10^−7 M)(b) and supernatants monitored at […]. Electroporation gave a 49.9% reduction in FMLP-stimulated NADPH oxidase compared to naive cells. Values (FIGS. 4a and 4b) represent the mean±SEM for n≧3, d≧6. For adhesion (FIGS. 4c and 4d), changes in light transmittance were monitored (as in Fiore, S., Nicolaou, K. C., Caulfield, T., Kataoka, H. & Serhan, C. N. Biochem. J. 266, 25-31 (1990), the teachings of which are incorporated herein by reference) after addition of compounds VI, VIII (1.6 μM) or vehicle (0.5 min) and FMLP (0.5-5 μM) (2.5 min). Cell viability remained>99%. Values represent the mean±SEM for n=3, d=9. 1,4,5-inositol-triphosphate levels were determined (Amersham) in fresh PMN (10^7 cells) exposed (5 minutes, 37° C.) to compound VI, compound VIII (1 μM) or vehicle and stimulated with FMLP (10^−7M, 37° C.) (as in FIG. 4e). % Inhibition after 10 second exposure to FMLP is reported as mean±SEM for n=4, d≧8. *p <0.05 in Student's paired t-test compared with control, while “NS” indicates no significant change compared to incubations in the presence of vehicle (ethanol 0.2%) alone. Stereochemistry of PSDP and PSMP (FIG. 4f) were assigned by routine methods (Poulter, C. D. and Rilling, H. C. Acc. Chem. Res. 11, 307-313, (1978), the teachings of which are hereby incorporated by reference).

binding of radiolabeled PSDP to Gst-Grb2 complexed to agarose beads (Gst-Grb2 fusion protein; 32PO4-PSDP 1 μM, 20 min 37° C.): bound
competition of radioligand (32PO4-PSDP) off Gst-Grb2 (Gst-Grb2 fusion protein; excess unlabeled PSDP, albumin 50 μg, Sos 50 μg): could be competed off
SMILES: CC(C)=CCC/C(C)=C/CC/C(C)=C/C1C(COP(=O)(O)OP(=O)(O)O)C1(C)CC/C=C(\C)CCC=C(C)C (stereo in doubt) [Compound VI, presqualene diphosphate]
Ki (Phospholipase D (PLD)): < 100 nM
inhibition of phosphatidate mediated superoxide anion generation in human neutrophil sonicates (neutrophil sonicates): inhibited
inhibition of fMLP-stimulated [Ca2+]i mobilization (neutrophils): inhibition
inhibition of PMA activated superoxide anion generation at 10 nM ([1]; compound 10 nM, PMA 100 nM): significant inhibition still present
inhibition of PMA activated superoxide anion generation ([1]; compound 1 μM, PMA 100 nM): 44%
inhibition of neutrophil superoxide anion generation ([1]; nM-μM amounts): inhibited
inhibition of the FMLP-triggered generation of superoxide anion ([1]; nM-μM quantities introduced by electroporation, FMLP 10^-7 M plus cytochalasin b): 60%
stimulation of O2- production by the compound alone ([1]; no agonist, 1 μM (FIG. 3c)): neither compound VI nor VIII alone stimulated
